# Test results as given in patent US9738634B2, “Heterocyclic amide compound and herbicide” (SYNGENTA PARTICIPATIONS AG, priority 2013, dated 2017).
# Columns and labels:
# Format in all cases: in vivo
# [1] = test system: barnyard grass; experiment: Test Example 1: weedkilling efficacy, preemergent weed treatment in the submerged state; A: barnyard grass; conditions: treatment dosage 252 g/ha
# Outline: (§1)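 Pots of alluvial soil were flooded to a 4 cm depth. Mixed weed seeds were sown and 2.5 leaf-stage rice seedlings transplanted. On sowing day, water-diluted emulsion was applied to the water surface (dose in g/ha). After 3 weeks at 25–30 °C, effects were rated.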
# [2] = test system: bulrush; experiment: Test Example 1: weedkilling efficacy, preemergent weed treatment in the submerged state; B: bulrush; conditions: treatment dosage 252 g/ha
# Outline: as §1
# [3] = test system: oval-leafed pondweed; experiment: Test Example 1: weedkilling efficacy, preemergent weed treatment in the submerged state; C: oval-leafed pondweed; conditions: treatment dosage 252 g/ha
# Outline: as §1
# [4] = test system: transplanted rice; experiment: Test Example 1: preemergent weed treatment in the submerged state, effect on crop; a: transplanted rice; conditions: treatment dosage 252 g/ha
# Outline: as §1
# [5] = test system: barnyard grass; experiment: Test Example 2: weedkilling efficacy, growth period weed treatment in the submerged state; A: barnyard grass; conditions: treatment dosage 252 g/ha
# Outline: (§2)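 Weeds treated at the 1-2 leaf stage by application of diluted emulsion onto floodwater (4 cm depth, alluvial soil) at specified g/ha. Grown in greenhouse at 25 to 30° C; herbicidal effect rated three weeks after treatment.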
# [6] = test system: bulrush; experiment: Test Example 2: weedkilling efficacy, growth period weed treatment in the submerged state; B: bulrush; conditions: treatment dosage 252 g/ha
# Outline: as §2
# [7] = test system: oval-leafed pondweed; experiment: Test Example 2: weedkilling efficacy, growth period weed treatment in the submerged state; C: oval-leafed pondweed; conditions: treatment dosage 252 g/ha
# Outline: as §2
# [8] = test system: crabgrass; experiment: Test Example 3: weedkilling efficacy through soil treatment; D: crabgrass; conditions: soil treatment, treatment dosage 315 g/ha
# Outline: (§3)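 Crop and weed responses were judged three weeks after a uniform surface spray of the water-diluted emulsion at the given g/ha rate. Seeds sat beneath about 1.5 cm of sterilized diluvial soil, and boxes stood in a greenhouse at 25 to 30° C.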
# [9] = test system: green foxtail; experiment: Test Example 3: weedkilling efficacy through soil treatment; E: green foxtail; conditions: soil treatment, treatment dosage 315 g/ha
# Outline: as §3
# [10] = test system: wild oat; experiment: Test Example 3: weedkilling efficacy through soil treatment; G: wild oat; conditions: soil treatment, treatment dosage 315 g/ha
# Outline: as §3
# [11] = test system: black-grass; experiment: Test Example 3: weedkilling efficacy through soil treatment; H: black-grass; conditions: soil treatment, treatment dosage 315 g/ha
# Outline: as §3
# [12] = test system: Italian ryegrass; experiment: Test Example 3: weedkilling efficacy through soil treatment; I: Italian ryegrass; conditions: soil treatment, treatment dosage 315 g/ha
# Outline: as §3
# [13] = test system: Indian mallow; experiment: Test Example 3: weedkilling efficacy through soil treatment; K: Indian mallow; conditions: soil treatment, treatment dosage 315 g/ha
# Outline: as §3
# [14] = test system: redroot pigweed; experiment: Test Example 3: weedkilling efficacy through soil treatment; L: redroot pigweed; conditions: soil treatment, treatment dosage 315 g/ha
# Outline: as §3
# [15] = test system: fig-leafed goosefoot; experiment: Test Example 3: weedkilling efficacy through soil treatment; M: fig-leafed goosefoot; conditions: soil treatment, treatment dosage 315 g/ha
# Outline: as §3
# [16] = test system: chickweed; experiment: Test Example 3: weedkilling efficacy through soil treatment; N: chickweed; conditions: soil treatment, treatment dosage 315 g/ha
# Outline: as §3
# [17] = test system: birds-eye speedwell; experiment: Test Example 3: weedkilling efficacy through soil treatment; p: birds-eye speedwell; conditions: soil treatment, treatment dosage 315 g/ha
# Excerpt: Weedkilling Efficacy Test Through Soil Treatment
# Sterilized diluvial soil was introduced into 21 cm long, 13 cm wide, 7 cm deep plastic boxes, and seeds of crabgrass, green foxtail, barnyard grass, wild oat, black-grass, Italian ryegrass, common wind-grass, Indian mallow, redroot pigweed, fig-leafed goosefoot, chickweed, catchweed, birds-eye speedwell, corn, soybean, rice, wheat, beet and rapeseed were each spot-sown, and covered with about 1.5 cm of soil. Next, emulsions of compounds of the present invention prepared according to compounding example 2 were diluted with water to give the specified dosages, and applied uniformly onto the soil surface with a small sprayer. The plants were grown by placing the plastic boxes in a greenhouse at 25 to 30° C., and 3 weeks after the pesticide treatment the effect on each type of plant was investigated on the basis of the assessment criteria of test example 1.
# A: barnyard grass, B: bulrush, C: oval-leafed pondweed, D: crabgrass, E: green foxtail, F: barnyard grass, G: wild oat, H: black-grass, I: Italian ryegrass, J: common wind-grass, K: Indian mallow, L: redroot pigweed, M: fig-leafed goosefoot, N: chickweed, O: catchweed, p: birds-eye speedwell, a: transplanted rice, b: directly sown rice, c: corn, d: soybean, e: wheat, f: beet, g: rapeseed
# Further, pesticide dosage (g/ha) indicates the concentration regulated such that treatment was with only the stated number of grams (g), when calculated per hectare (ha).
# [18] = test system: directly sown rice; experiment: Test Example 3: soil treatment, effect on crop; b: directly sown rice; conditions: soil treatment, treatment dosage 315 g/ha
# Outline: as §3
# [19] = test system: corn; experiment: Test Example 3: soil treatment, effect on crop; c: corn; conditions: soil treatment, treatment dosage 315 g/ha
# Outline: as §3
# [20] = test system: soybean; experiment: Test Example 3: soil treatment, effect on crop; d: soybean; conditions: soil treatment, treatment dosage 315 g/ha
# Outline: as §3
# [21] = test system: wheat; experiment: Test Example 3: soil treatment, effect on crop; e: wheat; conditions: soil treatment, treatment dosage 315 g/ha
# Outline: as §3
# [22] = test system: beet; experiment: Test Example 3: soil treatment, effect on crop; f: beet; conditions: soil treatment, treatment dosage 315 g/ha
# Outline: as §3
Structure (SMILES),"A: barnyard grass, weed kill grade [1]","B: bulrush, weed kill grade [2]","C: oval-leafed pondweed, weed kill grade [3]","a: transplanted rice, effect on crop grade [4]",A (barnyard grass) weedkilling efficacy grade [5],B (bulrush) weedkilling efficacy grade [6],C (oval-leafed pondweed) weedkilling efficacy grade [7],"D: crabgrass, weedkilling efficacy grade [8]","E: green foxtail, weedkilling efficacy grade [9]","G: wild oat, weedkilling efficacy grade [10]","H: black-grass, weedkilling efficacy grade [11]","I: Italian ryegrass, weedkilling efficacy grade [12]","K: Indian mallow, weedkilling efficacy grade [13]","L: redroot pigweed, weedkilling efficacy grade [14]","M: fig-leafed goosefoot, weedkilling efficacy grade [15]","N: chickweed, weedkilling efficacy grade [16]","P: birds-eye speedwell, weedkilling efficacy grade [17]","b: directly sown rice, effect on crop grade [18]","c: corn, effect on crop grade [19]","d: soybean, effect on crop grade [20]",also measured
CC(C)(C(=O)Nc1ncc(Cl)s1)N1COCN(c2ccccc2)C1=O [A-1-07],"5 (weed kill ratio 90% or more, (practically complete withering))","5 (weed kill ratio 90% or more, (practically complete withering))","5 (weed kill ratio 90% or more, (practically complete withering))",0 (weed kill ratio 5% or less (practically no effect)),"5 (weed kill ratio 90% or more, (practically complete withering))","5 (weed kill ratio 90% or more, (practically complete withering))","5 (weed kill ratio 90% or more, (practically complete withering))","5 (weed kill ratio 90% or more, (practically complete withering))","5 (weed kill ratio 90% or more, (practically complete withering))","5 (weed kill ratio 90% or more, (practically complete withering))","5 (weed kill ratio 90% or more, (practically complete withering))","5 (weed kill ratio 90% or more, (practically complete withering))","4 (weed kill ratio 70% or more, less than 90%)","5 (weed kill ratio 90% or more, (practically complete withering))","4 (weed kill ratio 70% or more, less than 90%)","4 (weed kill ratio 70% or more, less than 90%)","5 (weed kill ratio 90% or more, (practically complete withering))","5 (weed kill ratio 90% or more, (practically complete withering))","3 (weed kill ratio 40% or more, less than 70%)","1 (weed kill ratio 5% or more, less than 20%)","e: wheat, effect on crop grade [21]: 2 (weed kill ratio 20% or more, less than 40%); f: beet, effect on crop grade [22]: 5 (weed kill ratio 90% or more, (practically complete withering))"
CC(C)(C(=O)Nc1cccc(Br)n1)N1COCN(c2ccccc2)C1=O [A-2-09],"5 (weed kill ratio 90% or more, (practically complete withering))","5 (weed kill ratio 90% or more, (practically complete withering))","5 (weed kill ratio 90% or more, (practically complete withering))",0 (weed kill ratio 5% or less (practically no effect)),"5 (weed kill ratio 90% or more, (practically complete withering))","5 (weed kill ratio 90% or more, (practically complete withering))","5 (weed kill ratio 90% or more, (practically complete withering))","5 (weed kill ratio 90% or more, (practically complete withering))","5 (weed kill ratio 90% or more, (practically complete withering))","5 (weed kill ratio 90% or more, (practically complete withering))","5 (weed kill ratio 90% or more, (practically complete withering))","5 (weed kill ratio 90% or more, (practically complete withering))","3 (weed kill ratio 40% or more, less than 70%)","5 (weed kill ratio 90% or more, (practically complete withering))","4 (weed kill ratio 70% or more, less than 90%)","4 (weed kill ratio 70% or more, less than 90%)","5 (weed kill ratio 90% or more, (practically complete withering))","5 (weed kill ratio 90% or more, (practically complete withering))","3 (weed kill ratio 40% or more, less than 70%)","3 (weed kill ratio 40% or more, less than 70%)","e: wheat, effect on crop grade [21]: 1 (weed kill ratio 5% or more, less than 20%); f: beet, effect on crop grade [22]: 4 (weed kill ratio 70% or more, less than 90%)"
CC(C)(C(=O)Nc1ccccn1)N1COCN(c2ccccc2)C1=O [A-2-01],"5 (weed kill ratio 90% or more, (practically complete withering))","5 (weed kill ratio 90% or more, (practically complete withering))","4 (weed kill ratio 70% or more, less than 90%)",0 (weed kill ratio 5% or less (practically no effect)),"3 (weed kill ratio 40% or more, less than 70%)","5 (weed kill ratio 90% or more, (practically complete withering))","2 (weed kill ratio 20% or more, less than 40%)","4 (weed kill ratio 70% or more, less than 90%)","4 (weed kill ratio 70% or more, less than 90%)","2 (weed kill ratio 20% or more, less than 40%)","5 (weed kill ratio 90% or more, (practically complete withering))","5 (weed kill ratio 90% or more, (practically complete withering))",0 (weed kill ratio 5% or less (practically no effect)),"3 (weed kill ratio 40% or more, less than 70%)","4 (weed kill ratio 70% or more, less than 90%)","3 (weed kill ratio 40% or more, less than 70%)","5 (weed kill ratio 90% or more, (practically complete withering))","3 (weed kill ratio 40% or more, less than 70%)",0 (weed kill ratio 5% or less (practically no effect)),"2 (weed kill ratio 20% or more, less than 40%)","e: wheat, effect on crop grade [21]: 0 (weed kill ratio 5% or less (practically no effect)); f: beet, effect on crop grade [22]: 0 (weed kill ratio 5% or less (practically no effect))"
